From PubChem BioAssay (NCI) come the findings set out here.

Values joined by “and” are separate entries in the source; they are usually repeats but may differ in a detail not shown here. Equal entries are not always repeated.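 96-well plates; 48 h exposure; 5 concentrations. Endpoints by linear interpolation between flanking doses. Not reached: highest tested concentration assigned. Here, GI50 denotes the concentration required for 50% inhibition of growth. TGI marks complete inhibition of growth.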 Bounds are passed on as bounds.

Test systems include T-47D breast; SNB-75 CNS; HOP-62 NSCLC; MCF7 breast; HS 578T breast; ACHN renal; RXF 393 renal; MOLT-4 leukemia.
Holding throughout (assay): growth of human tumour cells (NCI), 48 h

Take `O=C(/C=C/c1cccc(Cl)c1)c1ccc(Cl)cc1Cl`: the GI50 was 9.11 µM in the assay on T-47D breast; 9.5 µM in the assay on SNB-75 CNS; 17.4 µM in the assay with HOP-62 NSCLC; 3.49 µM in the assay with MCF7 breast; 13.2 µM with HS 578T breast; 15.3 µM in the assay on ACHN renal. Besides, the TGI is 25.9 µM with T-47D breast; 30.1 µM in the assay on SNB-75 CNS; more than 50 µM in the assay with HOP-62 NSCLC; more than 50 µM in the assay with MCF7 breast; 40.1 µM in the assay with HS 578T breast; 38.4 µM with ACHN renal.
For the compound `CCCC[C@@H](COC(=O)N(Cc1cccs1)Cc1cccs1)NC(=O)N[C@@H](CC(=O)OC)c1ccc2c(c1)OCO2`, the GI50 with SNB-75 CNS is more than 100 µM; with HOP-62 NSCLC it was more than 100 µM; in the assay on MCF7 breast it was more than 100 µM; in the assay with RXF 393 renal, more than 100 µM; in the assay on MOLT-4 leukemia it was 5.19 µM; in the assay on HS 578T breast, more than 100 µM. In the assay on ACHN renal, the GI50 was more than 100 µM. For the same compound, the TGI in the assay with SNB-75 CNS, with HOP-62 NSCLC, in the assay on MCF7 breast, with RXF 393 renal, with MOLT-4 leukemia and in the assay with HS 578T breast was more than 100 µM throughout. In addition, in the assay on ACHN renal, the TGI was more than 100 µM.
For the compound `O=Nc1c(O)ccc2ccccc12`, the GI50 is 2.52 µM in the assay on SNB-75 CNS; 12.9 µM in the assay on HOP-62 NSCLC; 2.03 µM in the assay on MCF7 breast; 6.54 µM in the assay with RXF 393 renal; 3.58 µM in the assay with MOLT-4 leukemia; 2.45 µM with HS 578T breast. Also, the GI50 in the assay on ACHN renal was 2.16 µM. Also, the TGI in the assay on SNB-75 CNS was found to be 14.5 µM; with HOP-62 NSCLC it was 26.1 µM; in the assay on MCF7 breast it was 4.71 µM; with RXF 393 renal it was 19.5 µM; in the assay on MOLT-4 leukemia, 28.6 µM; in the assay on HS 578T breast it was 8.24 µM. Besides, the TGI in the assay on ACHN renal was 7.52 µM.
On to `O=C1c2ccccc2C(=O)N1c1ccc(OCCN2CCCCC2)cc1`, for which the TGI in the assay on T-47D breast, with HOP-62 NSCLC, in the assay on MCF7 breast, with RXF 393 renal, in the assay with MOLT-4 leukemia and in the assay with HS 578T breast was more than 100 µM each time. The TGI in the assay with ACHN renal was more than 100 µM.
Turning to `CCNCCNc1cc(-c2ccc(F)cc2)c(C#N)c2nc3ccccc3n12`, the GI50 with T-47D breast is 2.26 µM; with SNB-75 CNS it was 1.81 µM; with HOP-62 NSCLC, 18.2 µM; in the assay on MCF7 breast, 3.31 µM; with RXF 393 renal, 1.71 µM; in the assay with HS 578T breast, 3.15 µM. Besides, the GI50 with ACHN renal is 1.87 µM. For the same compound, the TGI was determined as 4.63 µM with T-47D breast; 4.39 µM in the assay on SNB-75 CNS; 32.8 µM in the assay with HOP-62 NSCLC; 13.5 µM in the assay on MCF7 breast; 3.44 µM in the assay on RXF 393 renal; 12.5 µM in the assay on HS 578T breast. Moreover, the TGI in the assay on ACHN renal is 3.51 µM.
Consider `COc1ccc(/C=C2\COc3ccc(-c4ccccc4)cc3C2=O)cc1O`, for which the GI50 was 3.28 µM with T-47D breast; 2.71 µM with SNB-75 CNS; 5.83 µM in the assay on HOP-62 NSCLC; 1.58 µM with MCF7 breast; 2.34 µM with MOLT-4 leukemia; 2.72 µM in the assay on HS 578T breast. In addition, the GI50 in the assay with ACHN renal was 3.13 µM. The TGI was 30.2 µM in the assay with T-47D breast; 8.77 µM in the assay on SNB-75 CNS; 19.4 µM with HOP-62 NSCLC; 13 µM with MCF7 breast; 83.6 µM in the assay on MOLT-4 leukemia; 7.56 µM in the assay with HS 578T breast. This compound also showed a TGI in the assay on ACHN renal of 13.1 µM.
Turning to `C=C(C)[C@H]1CC/C(C)=C/CCC(C)C(=O)CC/C(CO)=C\[C@@H]1O` (some centres not stated), the GI50 in the assay with T-47D breast was more than 100 µM; in the assay on HOP-62 NSCLC, more than 100 µM; in the assay with MCF7 breast it was more than 100 µM; in the assay on RXF 393 renal, more than 100 µM; in the assay with MOLT-4 leukemia it was 56.6 µM; in the assay on HS 578T breast it was 41.9 µM. Moreover, the GI50 with ACHN renal was more than 100 µM. Besides, the TGI in the assay on T-47D breast, with HOP-62 NSCLC, in the assay on MCF7 breast, with RXF 393 renal, with MOLT-4 leukemia and in the assay with HS 578T breast was more than 100 µM each time. This compound displayed a TGI in the assay with ACHN renal of more than 100 µM.
Consider `COc1ccc2c(c1)OC13Oc4cc(OC)ccc4C=C1CCCC3=C2`, for which the GI50 in the assay with T-47D breast is 4.7 µM; with HOP-62 NSCLC it was more than 100 µM; in the assay with MCF7 breast, 4.8 µM; in the assay with RXF 393 renal it was more than 100 µM; in the assay on MOLT-4 leukemia, 5.81 µM; with HS 578T breast it was more than 100 µM. Further, the GI50 in the assay with ACHN renal is more than 100 µM. For the same compound, the TGI in the assay with T-47D breast, in the assay on HOP-62 NSCLC, in the assay on MCF7 breast, with RXF 393 renal, with MOLT-4 leukemia and with HS 578T breast was more than 100 µM each time. In the assay on ACHN renal, the TGI was more than 100 µM.
As to `O=[N+]([O-])c1ccc2c(N=Nc3c(O)ccc4ccccc34)c(O)cc(S(=O)(=O)O)c2c1`, the GI50 in the assay on SNB-75 CNS is 44.8 µM; in the assay with HOP-62 NSCLC, 17.1 µM; in the assay on RXF 393 renal it was 27.1 µM; with MOLT-4 leukemia it was 15.7 µM; in the assay with HS 578T breast it was 67.2 µM; in the assay on ACHN renal it was 18.1 µM. The TGI in the assay with SNB-75 CNS is 50 µM and > 100 µM; in the assay with HOP-62 NSCLC it was 50 µM and > 100 µM; in the assay on MCF7 breast, more than 100 µM; with RXF 393 renal, 50 µM and > 100 µM; with MOLT-4 leukemia it was 50 µM and > 100 µM; in the assay with HS 578T breast, more than 100 µM. The TGI in the assay with ACHN renal is 50 µM and > 100 µM.
Regarding `C=C(C)C1/C=C(/C(C)C)CC[C@]2(C)O[C@@H]2CC[C@H](C)CC1=O` (some centres not stated), the GI50 is 76.7 µM with T-47D breast; 76 µM in the assay with HOP-62 NSCLC; 50.7 µM with MCF7 breast; 32 µM with RXF 393 renal; more than 100 µM in the assay with MOLT-4 leukemia; 31.7 µM in the assay on HS 578T breast. Besides, the GI50 with ACHN renal is 72.4 µM. The TGI in the assay on T-47D breast, with HOP-62 NSCLC, with MCF7 breast, in the assay with RXF 393 renal, with MOLT-4 leukemia and in the assay on HS 578T breast was more than 100 µM throughout. The TGI with ACHN renal was more than 100 µM.
For the compound `CCNCC(O)c1ccc(N)c([N+](=O)[O-])c1` (configuration not stated), the TGI in the assay with T-47D breast, in the assay on SNB-75 CNS, in the assay with HOP-62 NSCLC, in the assay on MCF7 breast, with MOLT-4 leukemia and with HS 578T breast was more than 100 µM throughout. Also, the TGI in the assay with ACHN renal was more than 100 µM.
